# From ChEMBL document CHEMBL3853299 (Eur J Med Chem, 2016)
# How the values were obtained:
# Prothrombin [1] = biological target: T1, Prothrombin (Homo sapiens, UniProt P00734); test: Inhibition of human thrombin pre-incubated for 10 mins before Ac-FVR-AMC substrate addition and measured after 10 mins by fluorescence based assay
# Prothrombin [2] = biological target: T1, Prothrombin; test: Inhibition of human thrombin at 1 ug/ml pre-incubated for 10 mins before Ac-FVR-AMC substrate addition and measured after 10 mins by fluorescence based assay
# Rattus norvegicus = species on record: Rattus norvegicus; test: Anticoagulant activity in rat assessed as inhibition of arteriovenous thrombosis at 0.5 mg/ml after 15 mins relative to control; type: functional
Structure (SMILES),IC50 (Prothrombin [1]),inhibition (Prothrombin [2]),inhibition (INH) (Rattus norvegicus)
CCn1c(CNc2ccc(C(=N)N)cc2)nc2cc(C(=O)N(CCC(=O)O)c3ccccc3)ccc21,4.69 nM,> 90%,
CCn1c(CNc2ccc(C(=N)N)cc2)nc2cc(C(=O)N(CCC(=O)O)c3cc(C)ccn3)ccc21,1.62 nM,> 90%,
CCn1c(CNc2ccc(C(=N)N)cc2)nc2cc(C(=O)N(CCC(=O)O)c3ccc(C)cc3C)ccc21,16.4 nM,> 90%,
CCn1c(CNc2ccc(C(=N)N)cc2)nc2cc(C(=O)N(CCC(=O)O)c3ccccc3C)ccc21,3.11 nM,> 90%,77.93%
CCn1c(CNc2ccc(C(=N)N)cc2)nc2cc(C(=O)N(CCC(=O)O)c3c(C)cccc3C)ccc21,3.1 nM,> 90%,
CCn1c(CNc2ccc(C(=N)N)cc2)nc2cc(C(=O)N(CCC(=O)O)c3cccc(C)n3)ccc21,0.96 nM,> 90%,85.35%
CCn1c(CNc2ccc(C(=N)N)cc2)nc2cc(C(=O)N(CCC(=O)O)c3ccc(F)c(C)c3)ccc21,6.27 nM,> 90%,
CCn1c(CNc2ccc(C(=N)N)cc2)nc2cc(C(=O)N(CCC(=O)O)c3cccc(C)c3)ccc21,2.13 nM,> 90%,
CCn1c(CNc2ccc(C(=N)N)cc2)nc2cc(C(=O)N(CCC(=O)O)c3ccc(F)cc3F)ccc21,4.23 nM,> 90%,
CCn1c(CNc2ccc(C(=N)N)cc2)nc2cc(C(=O)N(CCC(=O)O)c3cccc(C)c3C)ccc21,6.59 nM,> 90%,
CCn1c(CNc2ccc(C(=N)N)cc2)nc2cc(C(=O)N(CCC(=O)O)c3ccc(C)cc3)ccc21,4.98 nM,> 90%,
Cn1c(CNc2ccc(C(=N)N)cc2)nc2cc(C(=O)N(CCC(=O)O)c3ccccn3)ccc21 [DABIGATRAN],,,85.07%
